Measurements as given in US7816074B2, “α4 β2 δGABA-A receptors as a strategy for PMS and alcoholism” (priority 2003, dated 2010).

How the values were obtained:
[1] = target: T1, α4β2δ GABAA receptors (UniProt O14764+P63138+Q9D6F4); experiment: Two-electrode voltage-clamp of recombinant GABAA receptors in oocytes; format: cell-based; details: 1 mM ethanol
T1 construct: expressed in transfected cells
Protocol: Oocytes were injected with receptor subunit cRNAs (2 to 20 ng) in the following ratios: α1:β1:γ2S, α1:β2:γ2S and α1:β1:ε1, 1:1:1; α2:β1:γ2S, α5:β1:γ2S, α4:β1:γ2S, and α4:β2:γ2S, 10:1:1; α4:β1:δ, α4:β2:δ, α4:β3δ, 10:1:10; α1:β2:δ, 1:1:10 or 1:0.5:3; α1:β1:δ, 1:1:10 or 1:0.5:3; α2:β1:δ and α2:β2:δ, 1:0.5:3; α1:β1, α1:β2, α2:β1, α2:β2, β2:γ2S and α4δ, 1:1, α4:β1, α4:β2, α4:β3, 10:1, β2δ, 1:10.
Voltage-clamp recording was carried out 1 to 3 days after injection of cRNAs. Electrodes were filled with 3 M KCl and had resistances of 0.4-4 MΩ. Oocytes were positioned in a small Perspex chamber and continuously superfused with a saline solution (100 mM NaCl, 2 mM KCl, 1.8 mM CaCl2, 10 mM HEPES, pH 7.5). Agonists and modulators were both applied in the same saline solution. Oocytes were voltage-clamped at −70 mV and macroscopic currents were recorded with a two-electrode voltage-clamp using a Warner Instruments OC-725 amplifier as described previously (79). Currents were recorded on a chart recorder or by using Axograph on a Macintosh computer.

[2] = target: α1β1 receptors / oocytes injected with α1+β1+δ (Rattus norvegicus, UniProt P15431+P62813); details: 1 mM alcohol
Source text: Plasmids with inserts encoding GABAA receptor subunit sequence for rat α1 (62), rat β2 (83), rat α2 (62), rat α5 (62), mouse α4 (37), mouse β3 (82), rat β1 (83), rat γ2S (63), human δ (12), and human ε (11) were produced by subcloning each separately into an appropriate cloning vehicle such as PCDM8, pCDNA3.1 or pGHEMHE vectors (Invitrogen, Carlsbad Calif.) using a T7 promoter and standard subcloning techniques (59). Plasmids were linearized with an appropriate restriction enzyme at a site 3′ to the insert and cRNAs were synthesized using T3 or T7 polymerase (mMessage mMachine, Ambion, Tex.). The size of the cRNA was verified and RNA was quantified by ethidium bromide staining after electrophoresis on 1% agarose gels.
The preparation, injection, and maintenance of oocytes were carried out as described previously (78). […]
Voltage-clamp recording was carried out 1 to 3 days after injection of cRNAs. […] Oocytes were voltage-clamped at −70 mV and macroscopic currents were recorded with a two-electrode voltage-clamp using a Warner Instruments OC-725 amplifier as described previously (79). Currents were recorded on a chart recorder or by using Axograph on a Macintosh computer. […]

[3] = tested on: GABAA receptors of acutely isolated CA1 hippocampal pyramidal cells; experiment: Whole cell patch clamp, ethanol or THIP effect on GABA-gated current; format: cell-based, rat; details: for potentiation of GABA-gated currents: progesterone-withdrawal model; for potentiation of GABA-gated responses: after progesterone withdrawal
Protocol: Pyramidal neurons were acutely dissociated from CA1 hippocampus and GABA-gated Cl^− currents analyzed using whole cell patch clamp procedures as previously described (67). Briefly, tissue was digested at 32° C. for 50-60 minutes under 100% O2 in PIPES-buffered saline containing (in mM): NaCl 120, KCl 5, CaCl2 1, MgCl2 1, D-glucose 25, PIPES 20 and trypsin (type XI, sigma) 0.8 mg/ml, pH 7.0. After 1 hour of enzyme-free incubation at room temperature, tissue was dissociated by trituration in 1 ml of 20 mM HEPES-buffered DMEM which was replaced by recording medium after transfer to the recording chamber. GABA-gated currents were recorded at room temperature (20-25° C.) at a holding potential of −50 mV in a bath containing (in mM): NaCl 120, CsCl 5, CaCl2 2, MgCl2 1, TEA Cl 15, 4-aminopyridine 5, HEPES 10 and glucose 25, pH 7.4, 320 mOsm/kg H2O. The pipette solution contained (in mM): N-methyl-D-glucamine chloride 120, Cs4BAPTA 5 and Mg-ATP 5. The ATP regeneration system Tris phosphocreatine (20 mM) and creatine kinase were added to minimize GABA rundown. All drugs were obtained from Sigma Chemical Co, (St. Louis, Mo.), except for BAPTA (Calbiochem, San, Diego, Calif.).
Peak currents were calculated for all drug concentrations as relative to the current gated by 10 μM GABA alone using the equation: ([peak current: GABA+ETOH]−[peak current: GABA alone])/[peak current: GABA alone]. Currents were recorded using an Axopatch 1D amplifier (Axon Instruments) filtered at 2 kHz (four-pole Bessel filter) and detected at 500 Hz (pClamp 5.1).
Following progesterone withdrawal or control conditions, pyramidal cells were acutely isolated from CA1 hippocampus as described (65,64). GABA-gated Cl^− currents were recorded using whole cell patch clamp techniques at a holding potential of −50 mV.

[4] = tested on: female Long Evans rats; experiment: Elevated plus maze; details: ethanol 0.5 g/kg
Protocol: Adult, female Long Evans rats (200-250 grams at the time of testing) were used in the following example. Animals were housed in pairs under controlled conditions (14:10 light:dark cycle, 24° C.) with free access to food and water. Progesterone (P, Sigma, crystalline)-filled capsules of silicone tubing (Nalgene Co. 1/16″×⅛″ o.d., 10 mm/100 g body weight) were implanted subcutaneously in the lower back after induction of halothane anesthesia (3-6% in O2, 1 liter/minutes) in the experimental animals. […] Capsules were removed under halothane anesthesia after a 21-day P administration period, and animals tested 24 hours after the last injection (“P withdrawal”). Control animals were tested on the day of diestrus, also referred to as diestrus controls, a low hormone state, as determined by vaginal lavage. […] All animals were tested between 0730 and 1100 hour. Euthanasia was either by decapitation in the electrophysiology experiments or CO2 inhalation for the behavioral experiments following the indicated protocols.
This device consists of four 10×50 cm arms at 90° angles, with two arms enclosed by 40 cm walls, and two open arms, all elevated 50 cm above the floor. The open arms are also partially bordered by small rails extending to the proximal half of the arm, and the floor of the maze is marked with grid lines every 25 cm. […] Both number of entries and duration of time spent in the open and closed arms were tabulated, as were the total arm entries, a measure of general activity level. To be considered an open arm entry, the animal had to cross the line of the open platform with all four paws. An increase in open arm entries or time spent in the open arm versus the total time is considered to be a measure of decreased anxiety, (25).

α1β1 receptors / oocytes injected with α1+β1+δ, sequence (P62813 28-455): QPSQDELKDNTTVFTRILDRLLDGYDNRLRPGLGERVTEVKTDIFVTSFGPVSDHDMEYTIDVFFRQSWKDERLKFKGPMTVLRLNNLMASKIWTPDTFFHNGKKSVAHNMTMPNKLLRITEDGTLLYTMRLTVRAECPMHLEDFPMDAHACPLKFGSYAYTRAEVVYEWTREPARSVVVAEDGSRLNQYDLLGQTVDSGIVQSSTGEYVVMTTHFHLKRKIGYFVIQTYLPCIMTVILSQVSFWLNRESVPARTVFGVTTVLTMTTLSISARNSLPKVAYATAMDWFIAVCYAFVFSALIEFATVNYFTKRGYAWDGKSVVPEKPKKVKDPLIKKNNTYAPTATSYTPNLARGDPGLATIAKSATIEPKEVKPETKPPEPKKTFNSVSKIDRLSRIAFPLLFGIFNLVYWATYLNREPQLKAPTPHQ
α1β1 receptors / oocytes injected with α1+β1+δ, sequence (P15431 26-474): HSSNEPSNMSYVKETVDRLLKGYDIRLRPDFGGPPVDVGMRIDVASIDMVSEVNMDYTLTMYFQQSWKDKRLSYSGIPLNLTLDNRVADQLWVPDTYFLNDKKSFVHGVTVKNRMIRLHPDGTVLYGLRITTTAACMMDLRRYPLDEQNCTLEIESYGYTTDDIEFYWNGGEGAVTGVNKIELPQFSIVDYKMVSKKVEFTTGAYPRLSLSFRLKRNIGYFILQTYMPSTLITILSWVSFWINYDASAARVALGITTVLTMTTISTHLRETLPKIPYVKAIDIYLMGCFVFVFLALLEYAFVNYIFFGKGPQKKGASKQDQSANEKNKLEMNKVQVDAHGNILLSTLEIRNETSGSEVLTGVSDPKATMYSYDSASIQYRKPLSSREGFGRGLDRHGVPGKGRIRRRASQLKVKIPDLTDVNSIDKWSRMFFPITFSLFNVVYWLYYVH
T1 sequence (Q9D6F4 36-552): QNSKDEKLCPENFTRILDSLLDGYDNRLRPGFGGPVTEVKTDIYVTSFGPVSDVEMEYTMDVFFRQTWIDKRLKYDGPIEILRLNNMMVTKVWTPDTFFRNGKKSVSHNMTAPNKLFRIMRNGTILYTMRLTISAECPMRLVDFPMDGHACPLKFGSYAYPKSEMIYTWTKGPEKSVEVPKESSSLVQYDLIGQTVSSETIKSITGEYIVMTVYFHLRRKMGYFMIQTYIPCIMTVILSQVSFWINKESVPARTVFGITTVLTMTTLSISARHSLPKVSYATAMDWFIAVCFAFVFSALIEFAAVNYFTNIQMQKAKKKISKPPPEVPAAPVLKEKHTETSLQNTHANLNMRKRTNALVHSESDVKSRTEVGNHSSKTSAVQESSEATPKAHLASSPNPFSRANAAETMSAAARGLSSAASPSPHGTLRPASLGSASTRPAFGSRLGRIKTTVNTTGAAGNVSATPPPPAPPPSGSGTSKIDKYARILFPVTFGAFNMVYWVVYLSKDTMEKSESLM
T1 sequence (P63138 25-474 limits assumed): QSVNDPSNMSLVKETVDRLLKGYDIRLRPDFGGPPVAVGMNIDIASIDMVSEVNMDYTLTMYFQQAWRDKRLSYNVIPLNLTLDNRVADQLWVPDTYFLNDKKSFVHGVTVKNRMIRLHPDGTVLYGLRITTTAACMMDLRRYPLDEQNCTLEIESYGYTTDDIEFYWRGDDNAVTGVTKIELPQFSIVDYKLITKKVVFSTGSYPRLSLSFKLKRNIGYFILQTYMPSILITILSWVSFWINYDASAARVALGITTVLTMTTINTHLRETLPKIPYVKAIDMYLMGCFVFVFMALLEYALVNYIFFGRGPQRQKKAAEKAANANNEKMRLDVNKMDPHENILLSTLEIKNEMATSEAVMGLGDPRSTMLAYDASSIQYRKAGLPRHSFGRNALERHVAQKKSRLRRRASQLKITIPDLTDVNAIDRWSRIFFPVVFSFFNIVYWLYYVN
T1 sequence (O14764 17-452 limits assumed): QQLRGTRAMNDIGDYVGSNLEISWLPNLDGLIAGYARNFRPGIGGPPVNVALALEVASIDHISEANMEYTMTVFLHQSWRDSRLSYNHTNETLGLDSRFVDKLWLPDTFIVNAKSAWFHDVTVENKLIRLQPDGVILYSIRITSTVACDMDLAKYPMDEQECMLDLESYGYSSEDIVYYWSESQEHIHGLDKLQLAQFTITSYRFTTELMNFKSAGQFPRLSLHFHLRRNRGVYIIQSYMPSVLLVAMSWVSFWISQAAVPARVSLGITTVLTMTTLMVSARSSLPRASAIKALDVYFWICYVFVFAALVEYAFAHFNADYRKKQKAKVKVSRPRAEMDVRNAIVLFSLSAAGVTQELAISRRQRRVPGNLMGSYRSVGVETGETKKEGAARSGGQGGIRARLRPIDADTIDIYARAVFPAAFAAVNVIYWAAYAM

- increase of GABA-gated currents at α4β2δ receptors [1]: 45±11%
- effect on GABA responses [2]: not altered
- locomotor activity (total number of arm entries) ([4]; either group): not significantly altered
SMILES: CCO [ethanol]
- GABA-modulatory effects of alcohol ([3]; 1 mM alcohol, progesterone withdrawal with α4 expression suppressed): prevented
- potentiation of GABA-gated currents ([3]; 1 mM alcohol): 81±21%
- potentiation of GABA-gated responses ([3]; 3 mM ethanol with 10 μM GABA): 75±10%
- potentiation of GABA-gated currents ([3]; 10 mM and greater alcohol): not as effective
- potentiation of GABA-gated responses ([3]; 20 mM ethanol): ineffective
- effect on GABA responses ([3]; 3 or 20 mM ethanol, cells from control animals): neither concentration produced an effect
- % open arm entries, P withdrawn greater than control animals after ethanol [4]: 50%
- time in the open arm, P withdrawn relative to control animals after ethanol [4]: 3 fold
- increase of % of open arm entries compared to vehicle ([4]; P withdrawn animals): 7 fold
- increase of time in the open arm compared to vehicle ([4]; P withdrawn animals): more than 20 fold
- effect on open arm time and % open arm entries ([4]; control animals): no significant effect
